Measurements as given in US5726164A, “Nanosuspensions for intravenous administration” (Novartis Corporation, priority 1995, dated 1998).
Entries after “also recorded” stand apart in the source; their conditions may differ.

Key:
[1] = water solubility; type: physicochemical; details: at room temperature
From the text: A staurosporin derivative that is sparingly soluble in water is disclosed, for example, in U.S. Pat. No. 5,093,330 and is derived from staurosporin by additional substitution of the free hydrogen atom at the nitrogen of the N-methylamino substituent. Poor solubility in water is a characteristic property of staurosporin derivatives, which renders them unsuitable for intravenous dosage forms.

[2] = cited from earlier work

CO[C@@H]1[C@H](N(C)C(=O)c2ccccc2)C[C@H]2O[C@]1(C)n1c3ccccc3c3c4c(c5c6ccccc6n2c5c31)C(=O)NC4 [N-benzoyl-staurosporin]
solubility [1]: < 0.1 µg/mL

CN[C@@H]1C[C@H]2O[C@@](C)([C@@H]1OC)n1c3ccccc3c3c4c(c5c6ccccc6n2c5c31)C(=O)NC4 [staurosporin]
water solubility (in words) [2]: particularly poor water solubility; also recorded: extremely low water solubility
